According to the NIST ThermoML archive (doi:10.1021/je0400052):

Assays:
[1] = 101.33 kPa, Liquid
[2] = refractive index (Na D-line) (dimensionless); conditions: 101.33 kPa, Liquid
[3] = xn = mol fraction of the nth substance listed; conditions: 101.3 kPa, Liquid
[4] = refractive index (Na D-line) (dimensionless); xn = mol fraction of the nth substance listed; conditions: 101.3 kPa, Liquid

Cc1ccccc1C [1,2-dimethylbenzene]
Conditions	mass density, [1] [kg/m3]	refractive index, [2]	viscosity, [1] [mPa·s]
303.15 K	870.8	1.5001	0.695
313.15 K	863.3	1.4981	0.621

Cc1cccc(C)c1 [1,3-dimethylbenzene]
Conditions	mass density, [1] [kg/m3]	refractive index, [2]	viscosity, [1] [mPa·s]
303.15 K	855.3	1.492	0.557
313.15 K	847.1	1.4901	0.508

CCOC(=O)c1ccccc1 [ethyl benzoate] + CCc1ccccc1
Conditions	mass density, [3] [kg/m3]	refractive index, [4]	viscosity, [3] [mPa·s]
303.15 K, x1 = 0.0862	875.1	1.492	0.643
303.15 K, x1 = 0.1804	892.6	1.4932	0.711
303.15 K, x1 = 0.2589	910.2	1.4934	0.767
303.15 K, x1 = 0.3522	927.2	1.4942	0.857
303.15 K, x1 = 0.472	950.1	1.496	0.97
303.15 K, x1 = 0.5625	967	1.4968	1.071
303.15 K, x1 = 0.6722	984.9	1.4971	1.206
303.15 K, x1 = 0.7675	1002	1.4992	1.33
303.15 K, x1 = 0.8678	1019	1.4998	1.496
303.15 K, x1 = 0.9325	1040.9	1.5003	1.615
313.15 K, x1 = 0.0862	867	1.4911	0.57
313.15 K, x1 = 0.1804	884.3	1.4921	0.629
313.15 K, x1 = 0.2589	901.3	1.493	0.682
313.15 K, x1 = 0.3522	918.1	1.4937	0.745
313.15 K, x1 = 0.472	941.4	1.4954	0.844
313.15 K, x1 = 0.5625	960.4	1.4959	0.937
313.15 K, x1 = 0.6722	976.2	1.4963	1.063
313.15 K, x1 = 0.7675	993	1.4981	1.169
313.15 K, x1 = 0.8678	1009.7	1.4992	1.268
313.15 K, x1 = 0.9325	1027.4	1.4996	1.335

CCOC(=O)c1ccccc1 [ethyl benzoate] + Cc1ccc(C)cc1
Conditions	mass density, [3] [kg/m3]	refractive index, [4]	viscosity, [3] [mPa·s]
303.15 K, x1 = 0.0916	871.1	1.4931	0.622
303.15 K, x1 = 0.1757	889.3	1.4939	0.679
303.15 K, x1 = 0.2719	908.4	1.4951	0.765
303.15 K, x1 = 0.3616	925.3	1.4957	0.837
303.15 K, x1 = 0.4681	947.1	1.4965	0.951
303.15 K, x1 = 0.5703	964.8	1.497	1.045
303.15 K, x1 = 0.673	982.8	1.4983	1.181
303.15 K, x1 = 0.7781	1000.8	1.4988	1.325
303.15 K, x1 = 0.8651	1022.8	1.4995	1.469
303.15 K, x1 = 0.937	1040.8	1.5001	1.603
313.15 K, x1 = 0.0916	863	1.4912	0.55
313.15 K, x1 = 0.1757	880.9	1.4924	0.606
313.15 K, x1 = 0.2719	899.9	1.4948	0.686
313.15 K, x1 = 0.3616	917.3	1.495	0.739
313.15 K, x1 = 0.4681	937.5	1.4956	0.825
313.15 K, x1 = 0.5703	956	1.4963	0.9
313.15 K, x1 = 0.673	974	1.4972	1.008
313.15 K, x1 = 0.7781	993.2	1.4979	1.126
313.15 K, x1 = 0.8651	1010.2	1.4989	1.239
313.15 K, x1 = 0.937	1028.2	1.4996	1.339
